{
  "source": "ChEMBL document CHEMBL1201862",
  "about": "“PubChem BioAssay data set” (2004)",
  "key": {"[1]": {"biological_target": "T1, Aryl hydrocarbon receptor (Homo sapiens, UniProt P35869)", "T1 sequence (P35869 whole entry)": "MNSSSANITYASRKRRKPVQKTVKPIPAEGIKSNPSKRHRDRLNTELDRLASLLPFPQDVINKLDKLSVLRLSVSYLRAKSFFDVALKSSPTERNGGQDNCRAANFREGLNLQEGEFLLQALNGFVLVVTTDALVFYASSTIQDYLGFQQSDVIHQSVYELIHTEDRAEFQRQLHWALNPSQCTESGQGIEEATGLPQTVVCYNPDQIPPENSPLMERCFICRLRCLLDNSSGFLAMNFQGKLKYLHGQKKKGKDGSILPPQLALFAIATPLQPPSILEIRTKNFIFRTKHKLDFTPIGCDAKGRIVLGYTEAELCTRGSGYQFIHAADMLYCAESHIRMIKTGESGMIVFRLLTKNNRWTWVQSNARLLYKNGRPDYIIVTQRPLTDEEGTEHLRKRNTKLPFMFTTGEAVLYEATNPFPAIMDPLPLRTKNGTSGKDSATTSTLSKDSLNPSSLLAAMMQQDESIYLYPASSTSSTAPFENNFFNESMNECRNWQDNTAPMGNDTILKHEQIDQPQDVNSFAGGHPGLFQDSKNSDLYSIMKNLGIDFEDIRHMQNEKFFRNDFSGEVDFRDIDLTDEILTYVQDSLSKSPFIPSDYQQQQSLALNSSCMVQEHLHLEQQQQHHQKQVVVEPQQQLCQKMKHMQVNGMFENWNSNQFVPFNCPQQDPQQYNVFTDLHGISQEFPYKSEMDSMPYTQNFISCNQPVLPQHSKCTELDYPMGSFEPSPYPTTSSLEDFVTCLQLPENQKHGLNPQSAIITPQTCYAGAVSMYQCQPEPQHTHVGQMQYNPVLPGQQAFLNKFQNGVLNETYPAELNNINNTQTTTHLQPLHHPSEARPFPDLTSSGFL", "experiment": "Luminescence-based cell-based high throughput dose response assay for activators of the Aryl Hydrocarbon Receptor (AHR). [Related pubchem assays: 2796 (Primary screen (AHR activators in singlicate)), 2845 (Confirmation screen (AHR activators in triplicate)), 434939 (Counterscreen (PXR activators in triplicate)), 2804 (Summary (AHR activators))]", "format": "ADME"}, "[2]": {"experiment": "NIH-3T3 fibroblast cytotoxicity, dose response, cytotoxicity control, cell-based, fluorescence, Alamar Blue, secondary assay (AID 2327);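 note: NIH-3T3 mouse fibroblasts cultured with fluconazole at 8 µg/mL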", "format": "functional"}, "Leucine aminopeptidase": {"biological_target": "T2, Leucine aminopeptidase (Plasmodium falciparum 3D7, UniProt Q8IL11)", "T2 sequence (Q8IL11 whole entry)": "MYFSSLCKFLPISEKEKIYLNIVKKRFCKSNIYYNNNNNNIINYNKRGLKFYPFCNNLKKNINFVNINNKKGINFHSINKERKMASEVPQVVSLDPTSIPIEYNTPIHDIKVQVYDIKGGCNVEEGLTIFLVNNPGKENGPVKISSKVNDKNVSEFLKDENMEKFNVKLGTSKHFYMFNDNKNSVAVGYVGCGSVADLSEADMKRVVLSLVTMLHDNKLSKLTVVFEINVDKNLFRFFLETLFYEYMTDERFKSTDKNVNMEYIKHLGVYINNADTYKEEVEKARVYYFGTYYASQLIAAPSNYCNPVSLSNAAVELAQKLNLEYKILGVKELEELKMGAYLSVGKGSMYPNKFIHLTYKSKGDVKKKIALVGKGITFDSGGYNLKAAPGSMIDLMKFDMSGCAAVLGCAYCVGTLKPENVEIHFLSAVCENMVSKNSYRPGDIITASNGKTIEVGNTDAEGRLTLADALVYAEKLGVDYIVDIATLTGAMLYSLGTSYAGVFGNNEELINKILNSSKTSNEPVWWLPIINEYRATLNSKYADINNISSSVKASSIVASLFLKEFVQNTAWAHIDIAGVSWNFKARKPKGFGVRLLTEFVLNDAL", "experiment": "P. falciparum M17LAP inhibitors, primary screen, biochemical, fluorogenic H-Leu-NHMec substrate, 1536-well (AID 1619)", "format": "functional"}, "[3]": {"experiment": "fluconazole-exposed Candida albicans growth modulators – fluorescence, retest, confirmation (AID 2467)", "format": "functional, cell-based"}, "Large T antigen": {"biological_target": "Large T antigen (Simian virus 40, UniProt P03070)", "sequence (P03070 whole entry)": "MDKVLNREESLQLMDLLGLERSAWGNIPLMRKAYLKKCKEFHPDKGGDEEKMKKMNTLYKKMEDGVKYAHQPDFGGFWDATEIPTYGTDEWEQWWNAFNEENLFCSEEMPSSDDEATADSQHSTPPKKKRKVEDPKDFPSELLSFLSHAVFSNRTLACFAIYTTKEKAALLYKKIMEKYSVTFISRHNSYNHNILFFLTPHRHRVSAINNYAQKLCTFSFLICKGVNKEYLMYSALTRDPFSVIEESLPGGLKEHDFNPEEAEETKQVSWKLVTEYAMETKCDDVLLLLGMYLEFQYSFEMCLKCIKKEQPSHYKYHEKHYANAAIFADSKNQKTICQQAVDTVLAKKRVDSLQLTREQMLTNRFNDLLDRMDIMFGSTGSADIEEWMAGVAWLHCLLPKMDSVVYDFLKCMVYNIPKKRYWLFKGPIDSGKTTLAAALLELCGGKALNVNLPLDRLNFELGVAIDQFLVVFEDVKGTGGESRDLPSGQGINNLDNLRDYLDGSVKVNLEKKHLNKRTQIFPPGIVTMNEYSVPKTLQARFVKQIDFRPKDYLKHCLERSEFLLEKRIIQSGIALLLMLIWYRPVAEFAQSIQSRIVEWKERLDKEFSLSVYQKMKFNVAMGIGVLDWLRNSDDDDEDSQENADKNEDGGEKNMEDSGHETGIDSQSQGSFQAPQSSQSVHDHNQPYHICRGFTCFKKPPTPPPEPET", "format": "functional, Betapolyomavirus macacae"}, "[4]": {"biological_target": "Induced myeloid leukemia cell differentiation protein Mcl-1 (Homo sapiens, UniProt Q07820)", "sequence (Q07820 whole entry)": "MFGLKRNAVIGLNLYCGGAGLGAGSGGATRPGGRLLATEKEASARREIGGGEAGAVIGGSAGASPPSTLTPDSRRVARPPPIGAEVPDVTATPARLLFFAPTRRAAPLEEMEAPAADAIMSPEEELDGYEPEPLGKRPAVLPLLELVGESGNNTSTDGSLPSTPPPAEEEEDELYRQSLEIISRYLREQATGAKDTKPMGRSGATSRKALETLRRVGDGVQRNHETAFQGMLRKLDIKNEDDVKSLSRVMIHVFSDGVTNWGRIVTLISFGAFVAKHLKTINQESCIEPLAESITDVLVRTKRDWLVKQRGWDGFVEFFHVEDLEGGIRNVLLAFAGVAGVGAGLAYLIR", "experiment": "blockers of MCL1 binding to BIM peptide – biochemical, fluorescence polarization, BIM-BH3 peptide, 1536-well, dose response (AID 2217)"}, "Estrogen receptor beta [5]": {"biological_target": "T3, Estrogen receptor beta (Homo sapiens, UniProt Q92731)", "T3 sequence (Q92731 whole entry)": "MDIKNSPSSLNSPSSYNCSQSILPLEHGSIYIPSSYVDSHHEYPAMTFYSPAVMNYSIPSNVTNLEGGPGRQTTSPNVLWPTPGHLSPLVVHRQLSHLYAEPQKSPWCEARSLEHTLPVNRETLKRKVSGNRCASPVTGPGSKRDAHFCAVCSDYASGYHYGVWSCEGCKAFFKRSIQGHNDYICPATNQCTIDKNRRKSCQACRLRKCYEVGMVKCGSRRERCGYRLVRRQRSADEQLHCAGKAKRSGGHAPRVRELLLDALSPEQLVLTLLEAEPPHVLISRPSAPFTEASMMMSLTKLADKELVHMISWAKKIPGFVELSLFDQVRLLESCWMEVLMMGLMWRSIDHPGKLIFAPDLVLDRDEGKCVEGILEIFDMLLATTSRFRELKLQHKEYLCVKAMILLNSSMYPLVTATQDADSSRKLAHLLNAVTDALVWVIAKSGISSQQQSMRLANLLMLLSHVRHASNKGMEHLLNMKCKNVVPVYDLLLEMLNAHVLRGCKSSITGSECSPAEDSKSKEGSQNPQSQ"}, "Estrogen receptor beta [6]": {"biological_target": "T3, Estrogen receptor beta", "experiment": "blockers of SRC-3 recruitment to ERβ – biochemical, ELISA, streptavidin-HRP readout, orthogonal assay, confirmation (AID 1060)"}, "Bcl-2-like protein 1": {"biological_target": "Bcl-2-like protein 1 (Homo sapiens, UniProt Q07817)", "sequence (Q07817 whole entry)": "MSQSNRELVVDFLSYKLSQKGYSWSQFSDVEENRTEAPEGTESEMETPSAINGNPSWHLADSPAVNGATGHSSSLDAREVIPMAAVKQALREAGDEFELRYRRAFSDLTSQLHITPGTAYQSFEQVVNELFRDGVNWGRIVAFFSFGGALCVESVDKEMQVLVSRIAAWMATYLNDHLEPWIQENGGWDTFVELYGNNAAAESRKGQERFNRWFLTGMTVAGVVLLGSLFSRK", "experiment": "blockers of BCLXL peptide binding – biochemical, fluorescence polarization, 1536-well, selectivity assay for MCL1 inhibitor project, dose response (AID 2218)"}, "[7]": {"biological_target": "Intestinal-type alkaline phosphatase (Mus musculus, UniProt P24822)", "sequence (P24822 whole entry)": "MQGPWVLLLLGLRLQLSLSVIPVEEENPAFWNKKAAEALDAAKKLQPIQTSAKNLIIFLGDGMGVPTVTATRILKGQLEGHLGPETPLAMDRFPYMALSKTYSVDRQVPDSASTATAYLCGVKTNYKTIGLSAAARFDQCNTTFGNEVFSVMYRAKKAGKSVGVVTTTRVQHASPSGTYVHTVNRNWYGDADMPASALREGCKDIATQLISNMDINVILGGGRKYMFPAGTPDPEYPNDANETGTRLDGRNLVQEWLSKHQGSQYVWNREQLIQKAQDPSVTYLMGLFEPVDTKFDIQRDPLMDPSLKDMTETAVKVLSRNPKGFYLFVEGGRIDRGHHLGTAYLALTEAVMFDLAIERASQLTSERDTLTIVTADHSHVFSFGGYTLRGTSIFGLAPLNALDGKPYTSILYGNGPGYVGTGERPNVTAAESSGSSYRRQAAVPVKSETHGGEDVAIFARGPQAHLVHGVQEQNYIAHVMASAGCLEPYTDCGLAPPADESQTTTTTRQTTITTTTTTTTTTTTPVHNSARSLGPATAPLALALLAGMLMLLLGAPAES", "experiment": "PubChem AID 488785", "format": "functional"}, "[8]": {"biological_target": "T4, Alkaline phosphatase, tissue-nonspecific isozyme (Homo sapiens, UniProt P05186)", "T4 sequence (P05186 whole entry)": "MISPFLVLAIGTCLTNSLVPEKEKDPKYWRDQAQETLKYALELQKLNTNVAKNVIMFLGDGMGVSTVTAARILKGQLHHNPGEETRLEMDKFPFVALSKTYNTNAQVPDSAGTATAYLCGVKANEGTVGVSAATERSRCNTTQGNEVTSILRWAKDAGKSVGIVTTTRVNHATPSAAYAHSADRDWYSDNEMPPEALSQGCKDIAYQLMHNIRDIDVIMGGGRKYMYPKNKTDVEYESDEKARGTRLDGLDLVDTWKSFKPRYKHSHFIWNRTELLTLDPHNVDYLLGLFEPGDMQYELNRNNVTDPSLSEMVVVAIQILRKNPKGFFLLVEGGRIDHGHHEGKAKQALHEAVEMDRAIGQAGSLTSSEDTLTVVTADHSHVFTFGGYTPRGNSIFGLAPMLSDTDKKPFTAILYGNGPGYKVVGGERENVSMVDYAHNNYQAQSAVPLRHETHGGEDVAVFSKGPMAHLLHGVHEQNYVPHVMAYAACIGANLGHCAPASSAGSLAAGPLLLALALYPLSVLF", "experiment": "TNAP enzyme inhibition by screening hits, dose response, selectivity assay for mouse IAP inhibitor project, biochemical, human TNAP, uHTS hits (AID 488906)", "format": "functional"}, "[9]": {"biological_target": "Intestinal-type alkaline phosphatase (Homo sapiens, UniProt P09923)", "sequence (P09923 whole entry)": "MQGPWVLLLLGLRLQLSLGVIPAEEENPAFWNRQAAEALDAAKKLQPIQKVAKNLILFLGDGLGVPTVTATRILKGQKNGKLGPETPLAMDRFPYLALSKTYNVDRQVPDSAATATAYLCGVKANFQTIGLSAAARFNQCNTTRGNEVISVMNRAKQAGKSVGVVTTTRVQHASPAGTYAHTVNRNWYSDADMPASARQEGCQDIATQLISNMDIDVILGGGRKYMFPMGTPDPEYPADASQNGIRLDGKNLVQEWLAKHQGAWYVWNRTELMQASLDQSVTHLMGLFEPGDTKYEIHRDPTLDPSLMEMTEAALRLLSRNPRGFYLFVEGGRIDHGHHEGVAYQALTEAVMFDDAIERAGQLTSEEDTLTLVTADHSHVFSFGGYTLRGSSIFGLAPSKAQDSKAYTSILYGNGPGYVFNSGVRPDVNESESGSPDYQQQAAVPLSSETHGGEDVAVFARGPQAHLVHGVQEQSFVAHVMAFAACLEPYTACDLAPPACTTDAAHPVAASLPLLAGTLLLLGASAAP", "experiment": "inhibition of human intestinal alkaline phosphatase – biochemical, dose response (AID 488876)", "format": "functional"}, "Albumin": {"biological_target": "Albumin (Bos taurus, UniProt P02769)", "sequence (P02769 whole entry)": "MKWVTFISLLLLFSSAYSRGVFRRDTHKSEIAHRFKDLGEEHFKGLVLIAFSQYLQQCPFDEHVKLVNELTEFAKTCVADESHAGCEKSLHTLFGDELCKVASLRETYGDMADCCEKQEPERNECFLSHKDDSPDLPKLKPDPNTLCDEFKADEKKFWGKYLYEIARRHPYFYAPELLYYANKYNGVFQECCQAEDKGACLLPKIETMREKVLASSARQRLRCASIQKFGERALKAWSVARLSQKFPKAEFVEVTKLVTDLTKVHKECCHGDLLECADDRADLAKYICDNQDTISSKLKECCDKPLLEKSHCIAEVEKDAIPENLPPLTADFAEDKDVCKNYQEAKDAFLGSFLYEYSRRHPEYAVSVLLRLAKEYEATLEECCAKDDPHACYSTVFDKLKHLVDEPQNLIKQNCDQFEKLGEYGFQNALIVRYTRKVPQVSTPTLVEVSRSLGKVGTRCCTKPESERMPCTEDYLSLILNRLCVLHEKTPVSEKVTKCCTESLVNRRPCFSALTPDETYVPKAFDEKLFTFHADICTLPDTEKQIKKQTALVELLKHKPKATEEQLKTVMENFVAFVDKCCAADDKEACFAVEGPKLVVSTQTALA", "experiment": "Counterscreen for inhibitors of T-cell receptor (TCR)-CD3 interaction: Fluorescence-based biochemical high throughput dose response assay to identify inhibitors of T-cell receptor (TCR)-CD3 interaction using a TAMRA-labeled BSA probe.", "format": "functional"}, "[10]": {"biological_target": "T5, Histone-lysine N-methyltransferase NSD2 (Homo sapiens, UniProt O96028)", "T5 sequence (O96028 whole entry)": "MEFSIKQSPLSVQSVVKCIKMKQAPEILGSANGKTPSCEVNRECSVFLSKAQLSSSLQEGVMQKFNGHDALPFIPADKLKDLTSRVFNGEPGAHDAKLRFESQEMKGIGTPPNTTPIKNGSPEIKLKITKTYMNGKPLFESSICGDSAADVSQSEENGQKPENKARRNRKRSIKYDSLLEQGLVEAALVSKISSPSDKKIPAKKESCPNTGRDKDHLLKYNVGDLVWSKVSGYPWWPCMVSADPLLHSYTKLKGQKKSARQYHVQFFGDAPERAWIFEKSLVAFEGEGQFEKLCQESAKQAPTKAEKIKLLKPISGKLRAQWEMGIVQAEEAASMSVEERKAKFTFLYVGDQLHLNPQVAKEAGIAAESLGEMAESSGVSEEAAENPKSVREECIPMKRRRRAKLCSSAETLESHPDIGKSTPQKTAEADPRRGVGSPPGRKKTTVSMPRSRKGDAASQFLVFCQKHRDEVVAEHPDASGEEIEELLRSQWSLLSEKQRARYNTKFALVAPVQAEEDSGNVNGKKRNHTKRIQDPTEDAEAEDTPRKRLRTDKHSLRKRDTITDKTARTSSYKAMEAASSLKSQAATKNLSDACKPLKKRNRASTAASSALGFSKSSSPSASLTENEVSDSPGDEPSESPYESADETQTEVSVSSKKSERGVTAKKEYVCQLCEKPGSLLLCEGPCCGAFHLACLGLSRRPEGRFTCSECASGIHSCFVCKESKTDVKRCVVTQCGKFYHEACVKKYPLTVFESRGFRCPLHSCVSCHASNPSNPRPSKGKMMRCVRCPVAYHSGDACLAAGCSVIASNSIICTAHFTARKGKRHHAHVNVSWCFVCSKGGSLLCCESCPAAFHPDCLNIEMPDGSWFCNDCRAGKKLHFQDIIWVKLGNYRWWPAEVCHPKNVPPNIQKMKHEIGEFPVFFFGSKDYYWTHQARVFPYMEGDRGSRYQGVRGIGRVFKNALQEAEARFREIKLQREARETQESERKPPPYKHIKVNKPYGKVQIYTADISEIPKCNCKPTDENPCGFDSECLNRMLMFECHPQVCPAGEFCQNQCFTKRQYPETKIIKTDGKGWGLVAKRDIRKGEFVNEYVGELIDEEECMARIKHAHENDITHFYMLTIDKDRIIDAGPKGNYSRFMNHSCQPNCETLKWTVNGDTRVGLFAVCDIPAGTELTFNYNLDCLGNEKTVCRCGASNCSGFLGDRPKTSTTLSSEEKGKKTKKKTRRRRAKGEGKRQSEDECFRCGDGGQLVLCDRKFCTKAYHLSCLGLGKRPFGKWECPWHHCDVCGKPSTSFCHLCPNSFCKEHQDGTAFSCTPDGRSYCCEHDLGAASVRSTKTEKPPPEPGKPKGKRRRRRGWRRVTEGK", "format": "biochemical"}},
  "note": "Activity calls are given as the source filed them.",
  "data": [
    {"smiles": "COc1ccccc1NC(=O)c1ccc2c(c1)nnn2C", "values": [
      {"measurement": "EC50", "setting": "[1]", "value": "0.195 µM (active)"}
    ]},
    {"smiles": "CCn1c(SCC(=O)c2ccc(O)c(O)c2)nnc1-c1ccccc1OC", "values": [
      {"measurement": "EC50", "setting": "[2]", "value": "> 160 µM (inactive)"},
      {"measurement": "IC50", "setting": "Leucine aminopeptidase", "value": "24.4 µM (active)"},
      {"measurement": "EC50", "setting": "[3]", "value": "> 38 µM (not active)"},
      {"measurement": "IC50", "setting": "Large T antigen", "value": "7.83 µM (active)"},
      {"measurement": "IC50", "setting": "[4]", "value": "37.4 µM (not active)"},
      {"measurement": "IC50", "setting": "Estrogen receptor beta [5]", "value": "5.06 µM (active)"},
      {"measurement": "IC50", "setting": "Estrogen receptor beta [6]", "value": "93.8 µM (not active)"},
      {"measurement": "IC50", "setting": "Bcl-2-like protein 1", "value": "> 109 µM (not active)"},
      {"measurement": "IC50", "setting": "[7]", "value": "1.43 µM (active)"},
      {"measurement": "IC50", "setting": "[8]", "value": "> 100 µM (inactive)"},
      {"measurement": "IC50", "setting": "[9]", "value": "> 100 µM (inactive)"},
      {"measurement": "IC50", "setting": "Albumin", "value": "> 94.1 µM (inactive)"},
      {"measurement": "AC50", "setting": "[10]", "value": "9.05 µM (active)"}
    ]}
  ]
}
